Data published in patent US20240058308A1, “TREATMENT AND PREVENTION OF DRY MACULAR DEGENERATION” (The Regents of the University of Michigan, priority 2021, published 2024).
Read-outs that look alike come from different tables or passages of the source.

Legend:
[1] = tested on: primary human fetal RPE (hfRPE) culture; experiment: Autophagy induction by LC3 lipidation (LC3-II/LC3-I ratio) on Western blot; assay type: cell-based; conditions: 24 hours exposure, vs vehicle (DMSO)
Method: (§1) Cell cultures were exposed to each putative autophagy inducer at a concentration indicated in Table 1 for 24 hours, lysed with 36 μL of SDS sample buffer with β-mercaptoethanol, with 15 μg of lysate loaded on a 4-15% gradient gel followed by transfer to a PVDF membrane. Blots were incubated with 1:1000 of LC3A/B antibody (Cell Signaling Technology; #4108s, RRID:AB_2137703) overnight. Quantifying LC3-II/LC3-I ratio is a well-accepted method for det 306 ermining autophagy induction [Ref. 44; incorporated by reference in its entirety], and this ratio was quantified in a non-saturated, linear range using the Azure c500 Imaging System (Azure Biosystems, Dublin, CA, USA) and a combination of AzureSpot and ImageJ software. The data in FIG. 2A are not normalized, whereas the data in FIGS. 2b and 1c are normalized to the average combined value of the vehicle and drug groups within each experimental repeat. The extreme pigmentation of human fetal cultures, combined with the destruction of the LC3 epitope with melanin bleaching protocols, makes detection of LC3 by microscopy in hfRPE difficult. A range of LC3 staining and puncta quantification protocols specifically adapted to pigmented hfRPE culture were employed [Ref. 43; incorporated by reference in its entirety]. At least five fields of view were randomly chosen and analyzed per experimental replicate for LC3 immunocytochemistry.
To test for autophagy induction, lipidation of the core autophagy protein LC3 was measured by mobility shift on Western blots 24 hours after each compound was added to hfRPE cultures [Ref. 44; incorporated by reference in its entirety]. […] Of the more than 30 putative autophagy inducers tested, only five produced an increased ratio of LC3-II/LC3-I, consistent with increased autophagy (FIG. 2a).
Autophagy induction was measured by LC3-II/LC3-I Ratios on Western Blot (standard method for autophagy induction) (FIG. 18A-C). Drugs were applied to primary human RPE culture for 24 hours.

[2] = tested on: primary human fetal RPE (hfRPE) culture; experiment: Autophagy induction by LC3 puncta formation (immunocytochemistry); assay type: cell-based; conditions: 24 hours exposure
Method: as §1
Autophagy induction was confirmed by assaying the formation of LC3-positive puncta (autophagosomes) by immunocytochemistry [Ref. 44; incorporated by reference in its entirety]. Puncta formation was quantified in automated/unbiased fashion using a customized macro in the Fiji/ImageJ platform [Ref. 43; incorporated by reference in its entirety].
Autophagy induction was measured by LC3 puncta on immunocytochemistry (standard method for autophagy induction) (FIG. 19). Drugs applied to primary human RPE culture for 24 hours.

[3] = tested on: primary human fetal RPE (hfRPE) culture; experiment: Autophagy flux assay with NH4Cl lysosomal alkalinization; assay type: cell-based; conditions: inducer 22.5 hours, then 25 mM NH4Cl for final 1.5 hours
Method: Cultures were exposed to compounds or vehicle (DMSO) for 24 hours. […] (C) Autophagy flux assays. After application of inducers or vehicle (DMSO) for 22.5 hours, 25 mM of NH4Cl, a lysosomal alkalizing agent, or H2O were added for a final 1.5 hours to inhibit autophagy flux.
Increases in both LC3 lipidation and autophagosome formation could result from downstream blockade of autophagy at the lysosome.

[4] = tested on: primary hfRPE culture; experiment: Trans-epithelial electrical resistance (TEER), tight-junction integrity; assay type: cell-based
Method: (§2) TEER and cell death were measured [Ref 51; incorporated by reference in its entirety]. For cell death assays, maximum possible LDH release per Transwell was measured immediately after 2 μL of the final experimental supernate was taken. The Transwell and supernate was then treated with 0.2% Triton X-100 for 15 minutes at 37° C. followed by collection of an additional 2 μL of supernate. Each experimental LDH release value was first normalized to total LDH release from the vehicle condition. Additionally, all TEER and LDH release measurements were normalized to the vehicle group at the zero-hour timepoint.
(§3) To evaluate the safety of D4476 and FLBZ, trans-epithelial electrical resistance (TEER) was measured, a measure of tight-junction integrity, in RPE cultures after prolonged exposure to each compound. As well-formed tight-junctions require myriad cell processes to be optimally coordinated, assessing TEER provides an easily measurable, ongoing, and noninvasive marker for general RPE cell health [Ref. 45; incorporated by reference in its entirety]. […] Lactate dehydrogenase (LDH) release, a combined marker of necrotic and late-stage apoptotic cell death [Refs. 47,48; incorporated by reference in their entireties], was reduced compared to vehicle for all four verified RPE autophagy inducers (FIG. 3b). Exposure of RPE cultures to the oxidant tert-butyl hydroperoxide confirmed the ability of the assay to detect cell death (FIG. 10).
Transepithelial Electrical Resistance (TEER) was tested (FIGS. 16 and 17). TEER is a sensitive measure of toxicity (lower the TEER, the more toxic the drug is). Drugs were added daily and measurements made daily for at least 4-8 days.

[5] = tested on: primary hfRPE culture; experiment: Undigestible autofluorescent material (UAM) accumulation, elimination and granule size after oxOS feedings; assay type: cell-based, human; conditions: fed daily with oxOS over a month; FLBZ 12 μM, Torin 1 μM; vs vehicle
[6] = tested on: RPE of mouse eye; experiment: Intravitreal injection in mouse eyes, autophagy by LC3II/LC3I ratio of lysates; assay type: in vivo; conditions: four concentrations up to 500 uM, multiple timepoints, DMSO in other eye
Method: Experiments were conducted during development of embodiments herein to assay for autophagy in the mouse eye. Experiments were conducted to measure autophagy by giving an intraperitoneal injection of leupeptin, followed by assaying for LC3 puncta in an RPE flatmount of a GFP-LC3 mouse. Background from GFP-LC3 debris deposited on the RPE when the retina was peeled off for the flat mount prevented signal detection. A biochemical assay was then employed for autophagy induction, measuring an increase in the lipidation of the autophagy core protein LC3 (lipidated LC3=LC3-II, unlipidated LC3=LC3-I, so higher LC3-II/LC3-I ratio indicates autophagy induction). Sufficient signal as obtained. […] Harvesting techniques were also optimized for collecting RPE from mouse eyes.
Experiments were conducted during development of embodiments herein to establish a positive control for autophagy induction. […] Autophagy induction was measured at 4 different concentrations of Torin (500 nm, 5 um, 50 um, 500 um) and at 5 different timepoints after injection (1 day, 3 days, 7 days, 14 days, 28 days). […] Nevertheless, the ability of intravitreal injections of FLBZ to induce autophagy in the RPE was assessed. In preparation for injecting FLBZ intravitreally into mice, solubility assays were performed and the maximum amount of FLBZ that can be injected without it crashing out of solution in the vitreous was determined. […]

[7] = tested on: RPE from mouse eyecups; experiment: Ex vivo mouse eyecup autophagy induction (LC3II/LC3I ratio); conditions: mouse RPE/choroid eyecup, 24 hours; Torin 1-5 uM, FLBZ 12-60 uM
Method: FIG. 14. Effect of autophagy positive control Torin on RPE from mouse eyecups (DMSO as control). […] Mouse eyes were enucleated, the anterior segment vitreous, and retina were removed, leaving an eyecup with RPE/choroid exposed. […] RPE/Choroid eyecup was treated with 1 uM Torin1 in our previously established RPE cell culture media for 24 hours. n=4.
FIG. 15. Effect of Flubendazole on RPE from Mouse Eyecups (DMSO as control). Conditions with and without ammonium chloride (NH4Cl) help establish high autophagy flux rates. If true autophagy flux is happening, the LC3II/LC3I ratio should increase further upon addition of NH4Cl, as is the case here. DMSO− and FLBZ−, n=6, FLBZ+ and DMSO+ n=5. Flubendazole tested at 60 uM, lysates collected after 24 hours. Induction did occur in eyecups.
Given the inconsistent results with detecting autophagy induction using intravitreal injection of the positive control, Torin, experiments were conducted to determine whether the lack of responsiveness to intravitreal injections was a drug access issue or whether it was a species or animal vs. culture difference. Additional experiments utilized freshly isolated mouse eyecups with the retina removed to determine whether Torin (and FLBZ) induce autophagy in this context. […] The use of ammonium chloride in these experiments blocks lysosomal degradation.

[8] = Solubility assays of DMSO stock mixed with PBS (simulating the vitreous); assay type: physicochemical; conditions: Torin 1 mM stock mixed 1:1 with PBS; flubendazole 3 mM stock
Method: Experiments were conducted during development of embodiments herein to establish a positive control for autophagy induction. The direct mTOR inhibitor Torin1 was selected over rapamycin/sirolimus as the positive control, based on the capacity of Torin1 to induce autophagy in primary culture more strongly and more consistently than rapamycin. The experimental set-up involved injecting one eye with Torin and the other eye with the DMSO vehicle. Autophagy induction was measured at 4 different concentrations of Torin (500 nm, 5 um, 50 um, 500 um) and at 5 different timepoints after injection (1 day, 3 days, 7 days, 14 days, 28 days). […] Nevertheless, the ability of intravitreal injections of FLBZ to induce autophagy in the RPE was assessed. In preparation for injecting FLBZ intravitreally into mice, solubility assays were performed and the maximum amount of FLBZ that can be injected without it crashing out of solution in the vitreous was determined. […] This helped inform maximal concentrations of flubendazole that could be injected intravitreally. Four different concentrations were injected, up to the maximum solubility of FLBZ, and autophagy induction was assayed over a timeframe ranging from 1 week to 4 weeks after injection.

[9] = tested on: primary hfRPE culture
Method: (§4) Phagocytosis assays using bovine outer segments was performed using the “pulse-only” method [Ref 43; incorporated by reference in its entirety]. Values at the zero-hour timepoint were used for normalization.

[10] = tested on: primary hfRPE culture; experiment: Outer segment (OS) phagocytosis efficiency (rhodopsin disappearance); conditions: bovine outer segments, pulse-only method
Method: as §4

[11] = tested on: primary hfRPE culture; experiment: Cytotoxicity by LDH release; assay type: cell-based, human; conditions: 24 hours exposure
Method: as §2
as §3, with “Exposure of RPE cultures to the oxidant tert-butyl hydroperoxide confirmed the ability of the assay to detect cell death (FIG. 10).” left out

[12] = prolonged exposure, drug or vehicle (DMSO) replaced daily

Row | Structure (SMILES) | LC3-II/LC3-I ratio (autophagy induction) [1] | LC3 puncta formation (autophagy induction) [2] | Autophagy flux: LC3-II/LC3-I ratio after NH4Cl [3] | TEER (toxicity), Example 3 [4] | further results
1 | CCC(=O)N1CCN(c2ccc(-n3c(=O)ccc4cnc5ccc(-c6cnc7ccccc7c6)cc5c43)cc2C(F)(F)F)CC1 [Torin, Torin1] | upregulate autophagy | induced autophagy | induces autophagy flux | – | TEER (tight-junction integrity) [4]: dramatically reduced TEER; UAM accumulation, drug fed concurrently with oxOS [5]: more UAM accumulation; Autophagy induction in RPE after intravitreal injection (LC3II/LC3I ratio) [6]: No concentration or time after injection provided convincing evidence for replicable autophagy induction; Autophagy induction in eyecups (LC3II/LC3I ratio) [7]: induces autophagy well; Precipitation of DMSO stock solution when mixed with PBS [8]: did not crash out; OS phagocytosis efficiency / OS degradative capacity [9]: reduces phagocytosis efficiency
2 | CCCCc1oc2ccccc2c1C(=O)c1cc(I)c(OCCN(CC)CC)c(I)c1 [Amiodarone] | Induction of autophagy | – | – | – | –
3 | COc1cc2c(Oc3ccc4[nH]c(C)cc4c3F)ccnc2cc1OCC1(N)CC1 [anlotinib] | evidence for autophagy induction | confirming autophagy induction | – | No toxicity is observed | –
4 | O=C1NC(=O)/C(=C/c2ccc3nccc(-c4ccncc4)c3c2)S1 [GSK, GSK 1059615] | upregulate autophagy | induced autophagy | induces autophagy flux | – | TEER (tight-junction integrity) [4, 12]: dramatically reduced TEER; OS phagocytosis efficiency / OS degradative capacity [9]: reduces phagocytosis efficiency
5 | CCN(CC)CCNC(=O)c1c(C)[nH]c(/C=C2\C(=O)Nc3ccc(F)cc32)c1C [sunitinib] | – | – | – | No toxicity is observed | –
6 | O=C(NCC1(N2CCN(c3ccccc3)CC2)CCOCC1)c1cccnc1Sc1ccccc1 [JNJ, JNJ-47965567] | Induction of autophagy | – | – | – | –
7 | NC(=O)c1ccc(-c2nc(-c3ccc4c(c3)OCCO4)c(-c3ccccn3)[nH]2)cc1 [D4476] | Induction of autophagy | induced autophagy | induces autophagy flux | – | TEER (tight-junction integrity) [4, 12]: more modest impact; OS phagocytosis efficiency / OS degradative capacity [10]: no effect on OS degradative capacity
8 | CC(C)(C)OO [tBHP, tert-butyl hydroperoxide] | – | – | – | – | LDH release after oxidant exposure (assay validation) [11]: marked increase in LDH release
9 | N#CC1(c2ccc(NC(=O)c3cccnc3NCc3ccncc3)cc2)CCCC1 [apatinib] | evidence for autophagy induction | confirming autophagy induction | – | No toxicity is observed | –
10 | CC(C)(Sc1ccc(CCN(CCCCC2CCCCC2)C(=O)NC2CCCCC2)cc1)C(=O)O [GW7647] | Induction of autophagy | – | – | – | –
